≈ marks a conversion by molar mass, not a printed value.
Key:
[1] = system: HeLa; test: Cytotoxicity against human HeLa cells by MTT assay; type: cell-based
[2] = system: Staphylococcus aureus; test: Antibacterial activity against Staphylococcus aureus MTCC 96 by broth dilution method; type: functional
[3] = system: Pseudomonas aeruginosa; test: microbe, parasite or virus in culture; type: functional; details: MTCC 1688
Description: Antibacterial activity against Pseudomonas aeruginosa MTCC 1688 by broth dilution method

[4] = system: Escherichia coli; test: microbe, parasite or virus in culture; type: functional; details: MTCC 443
Description: Antibacterial activity against Escherichia coli MTCC 443 by broth dilution method

[5] = system: Streptococcus pyogenes; test: microbe, parasite or virus in culture; type: functional; details: MTCC 442
Description: Antibacterial activity against Streptococcus pyogenes MTCC 442 by broth dilution method

[6] = system: NIH3T3; test: Cytotoxicity against mouse NIH/3T3 cells by MTT assay; type: cell-based

| MIC [2] [µg/mL] | MIC [3] [µg/mL] | MIC [4] [µg/mL] | MIC [5] [µg/mL] | Compound | IC50 [1] [µg/mL] | IC50 [6] [µg/mL] |
| --- | --- | --- | --- | --- | --- | --- |
| 12.5 (≈ 22.3 µM) | 100 (≈ 178 µM) | 500 (≈ 892 µM) | 100 (≈ 178 µM) | N#Cc1c(-c2ccc(Br)cc2)c(C#N)c(=O)n(/N=C/c2cn(-c3ccccc3)nc2-c2ccccc2)c1N | > 200 | > 200 |
| 500 (≈ 977 µM) | 500 (≈ 977 µM) | 500 (≈ 977 µM) | 250 (≈ 489 µM) | COc1ccc(-c2c(C#N)c(N)n(/N=C/c3cn(-c4ccccc4)nc3-c3ccccc3)c(=O)c2C#N)cc1 | > 200 | 50 (≈ 97.7 µM) |
| 500 (≈ 875 µM) | 250 (≈ 437 µM) | 500 (≈ 875 µM) | 250 (≈ 437 µM) | COc1cc(-c2c(C#N)c(N)n(/N=C/c3cn(-c4ccccc4)nc3-c3ccccc3)c(=O)c2C#N)cc(OC)c1OC | > 200 | 64 (≈ 112 µM) |
| 25 (≈ 47.5 µM) | 100 (≈ 190 µM) | 25 (≈ 47.5 µM) | 250 (≈ 475 µM) | N#Cc1c(-c2ccccc2[N+](=O)[O-])c(C#N)c(=O)n(/N=C/c2cn(-c3ccccc3)nc2-c2ccccc2)c1N | > 200 | > 200 |
| 100 (≈ 182 µM) | 250 (≈ 455 µM) | 100 (≈ 182 µM) | 250 (≈ 455 µM) | N#Cc1c(-c2ccccc2C(F)(F)F)c(C#N)c(=O)n(/N=C/c2cn(-c3ccccc3)nc2-c2ccccc2)c1N | > 200 | 56 (≈ 102 µM) |
| 250 (≈ 475 µM) | 100 (≈ 190 µM) | 100 (≈ 190 µM) | 50 (≈ 95 µM) | N#Cc1c(-c2cccc([N+](=O)[O-])c2)c(C#N)c(=O)n(/N=C/c2cn(-c3ccccc3)nc2-c2ccccc2)c1N | > 200 | 124 (≈ 236 µM) |
| 50 (≈ 95 µM) | 25 (≈ 47.5 µM) | 12.5 (≈ 23.7 µM) | 12.5 (≈ 23.7 µM) | N#Cc1c(-c2ccc([N+](=O)[O-])cc2)c(C#N)c(=O)n(/N=C/c2cn(-c3ccccc3)nc2-c2ccccc2)c1N | > 200 | 84 (≈ 160 µM) |
| 100 (≈ 194 µM) | 500 (≈ 969 µM) | 500 (≈ 969 µM) | 12.5 (≈ 24.2 µM) | N#Cc1c(-c2ccc(Cl)cc2)c(C#N)c(=O)n(/N=C/c2cn(-c3ccccc3)nc2-c2ccccc2)c1N | > 200 | 64 (≈ 124 µM) |
| 250 (≈ 446 µM) | 250 (≈ 446 µM) | 100 (≈ 178 µM) | 500 (≈ 892 µM) | N#Cc1c(-c2cccc(Br)c2)c(C#N)c(=O)n(/N=C/c2cn(-c3ccccc3)nc2-c2ccccc2)c1N | > 200 | 42 (≈ 74.9 µM) |
| 500 (≈ 969 µM) | 250 (≈ 485 µM) | 50 (≈ 96.9 µM) | 100 (≈ 194 µM) | N#Cc1c(-c2cccc(Cl)c2)c(C#N)c(=O)n(/N=C/c2cn(-c3ccccc3)nc2-c2ccccc2)c1N | > 200 | 52 (≈ 101 µM) |
| 12.5 (≈ 25 µM) | 25 (≈ 50 µM) | 12.5 (≈ 25 µM) | 100 (≈ 200 µM) | N#Cc1c(-c2ccc(F)cc2)c(C#N)c(=O)n(/N=C/c2cn(-c3ccccc3)nc2-c2ccccc2)c1N | > 200 | > 200 |
| 500 (≈ 1000 µM) | 500 (≈ 1000 µM) | 500 (≈ 1000 µM) | 250 (≈ 502 µM) | N#Cc1c(-c2ccccc2O)c(C#N)c(=O)n(/N=C/c2cn(-c3ccccc3)nc2-c2ccccc2)c1N | > 200 | 162 (≈ 326 µM) |
| 25 (≈ 50 µM) | 50 (≈ 100 µM) | 250 (≈ 500 µM) | 25 (≈ 50 µM) | N#Cc1c(-c2ccccc2F)c(C#N)c(=O)n(/N=C/c2cn(-c3ccccc3)nc2-c2ccccc2)c1N | > 200 | > 200 |
| 500 (≈ 1040 µM) | 500 (≈ 1040 µM) | 250 (≈ 519 µM) | 500 (≈ 1040 µM) | N#Cc1c(-c2ccccc2)c(C#N)c(=O)n(/N=C/c2cn(-c3ccccc3)nc2-c2ccccc2)c1N | > 200 | 180 (≈ 374 µM) |
| 25 (≈ 45.5 µM) | 25 (≈ 45.5 µM) | 250 (≈ 455 µM) | 250 (≈ 455 µM) | N#Cc1c(-c2ccc(C(F)(F)F)cc2)c(C#N)c(=O)n(/N=C/c2cn(-c3ccccc3)nc2-c2ccccc2)c1N | > 200 | > 200 |
| 12.5 (≈ 22.3 µM) | 250 (≈ 446 µM) | 100 (≈ 178 µM) | 250 (≈ 446 µM) | N#Cc1c(-c2ccccc2Br)c(C#N)c(=O)n(/N=C/c2cn(-c3ccccc3)nc2-c2ccccc2)c1N | > 200 | 174 (≈ 310 µM) |
| 100 (≈ 194 µM) | 100 (≈ 194 µM) | 100 (≈ 194 µM) | 100 (≈ 194 µM) | N#Cc1c(-c2ccccc2Cl)c(C#N)c(=O)n(/N=C/c2cn(-c3ccccc3)nc2-c2ccccc2)c1N | > 200 | 84 (≈ 163 µM) |
| 500 (≈ 1010 µM) | 250 (≈ 504 µM) | 500 (≈ 1010 µM) | 250 (≈ 504 µM) | Cc1ccc(-c2c(C#N)c(N)n(/N=C/c3cn(-c4ccccc4)nc3-c3ccccc3)c(=O)c2C#N)cc1 | > 200 | 98 (≈ 198 µM) |
| 50 (≈ 100 µM) | 50 (≈ 100 µM) | 100 (≈ 200 µM) | 50 (≈ 100 µM) | N#Cc1c(-c2cccc(F)c2)c(C#N)c(=O)n(/N=C/c2cn(-c3ccccc3)nc2-c2ccccc2)c1N | > 200 | 154 (≈ 308 µM) |
| 500 (≈ 1000 µM) | 500 (≈ 1000 µM) | 500 (≈ 1000 µM) | 500 (≈ 1000 µM) | N#Cc1c(-c2ccc(O)cc2)c(C#N)c(=O)n(/N=C/c2cn(-c3ccccc3)nc2-c2ccccc2)c1N | > 200 | 110 (≈ 221 µM) |

| Compound | MIC [2] [µg/mL] | MIC [3] [µg/mL] | MIC [4] [µg/mL] | MIC [5] [µg/mL] | IC50 [1] [µg/mL] | IC50 [6] [µg/mL] |
| --- | --- | --- | --- | --- | --- | --- |
| O=C(O)c1cn(C2CC2)c2cc(N3CCNCC3)c(F)cc2c1=O [CIPROFLOXACIN] | 50 (≈ 151 µM) | – | 25 (≈ 75.4 µM) | 50 (≈ 151 µM) | – | – |

— ChEMBL document CHEMBL2375330, “Synthesis of pyrazole encompassing 2-pyridone derivatives as antibacterial agents” (Bioorg Med Chem Lett, 2013)
